Source: US20230173076A1, “METABOLICALLY STABLE PEPTIDE ANALOGS” (UNIVERSITÉ DE STRASBOURG, priority 2016, published 2023)
Positions of bridges follow the written chain, without caps; N, C: chain ends. Non-standard residues stand in square brackets, D forms with d. Residues, ends and D or L forms follow the SMILES beside them. ξ: configuration not given here. *: point of attachment. X1 = CCN([C@@H](C)C(=O)C[C@@H](CCCCNC(=O)CCC(F)(F)C(F)(F)C(F)(F)C(F)(F)C(F)(F)C(F)(F)C(F)(F)C(F)(F)F)C(=O)NCC(N)=O)*; Ile(3ξ) = CCC(C)[C@H](N)C(=O)O

Columns and labels:
[1] = biological target: T1, human vasopressin Oxytocin receptor (Homo sapiens, UniProt P30559); assay: Radioligand binding assay, human oxytocin receptor in transfected Chem-1 cells; details: read-out: Affinity % of inhibition à 10 nM
T1 construct: expressed in transfected cells; host or cells: Chem-1 cells (membrane homogenates)
T1 sequence (P30559 1-389): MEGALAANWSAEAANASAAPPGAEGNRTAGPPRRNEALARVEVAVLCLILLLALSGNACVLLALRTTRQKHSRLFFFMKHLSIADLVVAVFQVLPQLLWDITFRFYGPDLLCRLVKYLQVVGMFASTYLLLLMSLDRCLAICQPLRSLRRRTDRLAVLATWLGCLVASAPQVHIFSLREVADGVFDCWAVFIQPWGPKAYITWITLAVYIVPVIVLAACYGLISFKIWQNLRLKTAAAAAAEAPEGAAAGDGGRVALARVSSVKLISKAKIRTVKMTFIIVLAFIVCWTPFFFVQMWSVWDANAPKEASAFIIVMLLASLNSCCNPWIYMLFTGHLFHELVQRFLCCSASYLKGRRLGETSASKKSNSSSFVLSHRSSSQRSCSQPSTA
Description: Experimental protocol: […] Following incubation, the samples are filtered rapidly under vacuum through glass fiber filters (GF/B, Packard) presoaked with 0.3% PEI and rinsed several times with ice-cold 50 mM Tris-HCl and 0.1% BSA using a 96-sample cell harvester (Unifilter, Packard). The filters are dried then counted for radioactivity in a scintillation counter (Topcount, Packard) using a scintillation cocktail (Microscint 0, Packard). The results are expressed as a percent inhibition of the control radioligand specific binding.

in vitro = details: human, plasma, Human plasma stability (t1/2)
Description: (§1) This procedure is designed to determine the stability of a test compound in blood or plasma from human or animal species in a 96-well plate format. The test compound is quantified at 5 time points by HPLC-MS/MS analysis.
(§2) Test concentration: 1 μM with a final DMSO concentration of 0.5%.
(§3) Experimental protocol : Blood or plasma are pre-warmed at 37° C. water bath for 5 min, followed by addition of the test compound. The incubation is performed in a 37° C. water bath for 2 h. An aliquot of the incubation mixture is transferred to acetonitrile at 0, 0.5, 1, 1.5 and 2 h, respectively. Samples are then mixed and centrifuged. Supernatants are used for HPLC-MS/MS analysis. Reference compounds Propoxycaine and propantheline are tested simultaneously with the test compound in each assay. Analytical methods Samples are analyzed by HPLC-MS/MS using selected reaction monitoring. The HPLC system consists of a binary LC pump with autosampler, a C-18 column, and a gradient. Conditions may be adjusted as necessary. Data analysis Peak areas corresponding to the test compound are recorded. The compound remaining (%) is calculated by comparing the peak area at each time point to time zero. The half-life is calculated from the slope of the initial linear range of the logarithmic curve of compound remaining (%) vs. time, assuming first order kinetics
(§4) Test concentration: 1 μM with a final DMSO concentration of 0.5%. Experimental protocol: Blood or plasma are pre-warmed at 37° C. water bath for 5 min, followed by addition of the test compound. The incubation is performed in a 37° C. water bath for 2 h. An aliquot of the incubation mixture is transferred to acetonitrile at 0, 0.5, 1, 1.5 and 2 h, respectively. Samples are then mixed and centrifuged. Supernatants are used for HPLC-MS/MS analysis. Reference compounds Propoxycaine and propantheline are tested simultaneously with the test compound in each assay. Analytical methods Samples are analyzed by HPLC-MS/MS using selected reaction monitoring. The HPLC system consists of a binary LC pump with autosampler, a C-18 column, and a gradient. Conditions may be adjusted as necessary. Data analysis Peak areas corresponding to the test compound are recorded. The compound remaining (%) is calculated by comparing the peak area at each time point to time zero. The half-life is calculated from the slope of the initial linear range of the logarithmic curve of compound remaining (%) vs. time, assuming first order kinetics
(§5) Test concentration: 1 μM with a final DMSO concentration of 0.5%. Experimental protocol: Blood or plasma are pre-warmed at 37° C. water bath for 5 min, followed by addition of the test compound. The incubation is performed in a 37° C. water bath for 2 h. An aliquot of the incubation mixture is transferred to acetonitrile at 0, 0.5, 1, 1.5 and 2 h, respectively. Samples are then mixed and centrifuged. Supernatants are used for HPLC-MS/MS analysis. Reference compounds Propoxycaine and propantheline are tested simultaneously with the test compound in each assay. Analytical methods Samples are analyzed by HPLC-MS/MS using selected reaction monitoring. The HPLC system consists of a binary LC pump with autosampler, a C-18 column, and a gradient. Conditions may be adjusted as necessary. Data analysis Peak areas corresponding to the test compound are recorded. The compound remaining (%) is calculated by comparing the peak area at each time point to time zero. The half-life is calculated from the slope of the initial linear range of the logarithmic curve of compound remaining (%) vs. time, assuming first order kinetics.

[2] = Human plasma stability (HPLC-MS/MS); details: 37° C.; for half-life at 1 μM: human, plasma, Human plasma stability (t1/2); for Human plasma stability (t1/2): 1 μM
Description: as §1, §2, §3, §4, §5

[3] = Solubility study in water by visual observation
Description: (§6) The resulting solution was vortexed 1 min following by 1 min in bath sonication. Solubility was then assessed by visual observation of the resulting dispersion (Clear/Cloudy and presence of particulates).

Description for physchem: as §6

solubility at 2 min [3] | Compound | solubility at 2 min (physchem) | inhibition at 0.01 µM [1] | half-life at 1 μM ([2]; apelin analogs table) | other results
– | CC[C@H](C)[C@@H]1NC(=O)[C@H](Cc2ccc(O)cc2)NC(=O)[C@@H](N)CSSC[C@@H](C(=O)N2CCC[C@H]2C(=O)N[C@@H](CC(C)C)C(=O)NCC(N)=O)NC(=O)[C@H](CC(N)=O)NC(=O)[C@H](CCC(N)=O)NC1=O [Oxytocin, reference compound] | > 100 µM | 102% | – | half-life at 1 μM (in vitro): 2.45 h
– | CCC(C)[C@@H]1NC(=O)[C@H](Cc2ccc(O)cc2)NC(=O)[C@@H](N)CSSC[C@@H](C(=O)N(CC)[C@@H](C)C(=O)C[C@@H](CCCCNC(=O)CCC(F)(F)C(F)(F)C(F)(F)C(F)(F)C(F)(F)C(F)(F)C(F)(F)C(F)(F)F)C(=O)NCC(N)=O)NC(=O)[C@H](CC(N)=O)NC(=O)[C@H](CCC(N)=O)NC1=O (some centres unmarked) [SR-11-74] (H-CY[Ile(3ξ)]QNC-X1; disulfide 1-6) | > 100 µM | 91.3% | – | half-life at 1 μM ([2]; oxytocin analogs table): 3.98 h
> 100 µM | CC[C@H](C)[C@H](NC(=O)[C@H](Cc1ccc(O)cc1)NC(=O)[C@@H](NC(=O)[C@H](CCCNC(=N)N)NC(=O)[C@H](CC(=O)O)NC(=O)CCC(F)(F)C(F)(F)C(F)(F)C(F)(F)C(F)(F)C(F)(F)C(F)(F)C(F)(F)F)C(C)C)C(=O)N[C@@H](Cc1cnc[nH]1)C(=O)N1CCC[C@H]1C(=O)N[C@@H](Cc1ccccc1)C(=O)O [LE120] | – | – | – | Human plasma stability (t1/2) ([2]; angiotensin II analogs table): >24 h; half-life at 1 μM ([2]; angiotensin II analogs table): > 24 h
– | CSCC[C@H](NC(=O)[C@@H]1CCCN1C(=O)CNC(=O)[C@H](CCCCN)NC(=O)[C@H](Cc1c[nH]cn1)NC(=O)[C@H](CO)NC(=O)[C@H](CC(C)C)NC(=O)[C@H](CCCNC(=N)N)NC(=O)[C@@H]1CCCN1C(=O)[C@H](CCCNC(=N)N)NC(=O)[C@H](CCC(N)=O)NC(=O)CCC(F)(F)C(F)(F)C(F)(F)C(F)(F)C(F)(F)C(F)(F)C(F)(F)C(F)(F)F)C(=O)N1CCC[C@H]1C(=O)N[C@@H](Cc1ccccc1)C(=O)O [LE-122] | > 100 µM | – | > 20.7 h | Human plasma stability (t1/2) ([2]; apelin analogs table): 20.68 h
> 100 µM | CC[C@H](C)[C@H](NC(=O)[C@H](Cc1ccc(O)cc1)NC(=O)[C@@H](NC(=O)[C@H](CCCNC(=N)N)NC(=O)[C@@H](N)CC(=O)O)C(C)C)C(=O)N[C@@H](Cc1cnc[nH]1)C(=O)N1CCC[C@H]1C(=O)N[C@@H](Cc1ccccc1)C(=O)O [Angiotensin II, reference compound] | – | – | – | –
– | CSCC[C@H](NC(=O)[C@@H]1CCCN1C(=O)CNC(=O)[C@H](CCCCN)NC(=O)[C@H](Cc1c[nH]cn1)NC(=O)[C@H](CO)NC(=O)[C@H](CC(C)C)NC(=O)[C@H](CCCNC(=N)N)NC(=O)[C@@H]1CCCN1C(=O)[C@H](CCCNC(=N)N)NC(=O)[C@H](CCC(N)=O)NC(=O)[C@@H](N)CCCCNC(=O)CCC(F)(F)C(F)(F)C(F)(F)C(F)(F)C(F)(F)C(F)(F)C(F)(F)C(F)(F)F)C(=O)N1CCC[C@H]1C(=O)N[C@@H](Cc1ccccc1)C(=O)O [LE-124] | – | – | 5.95 h | –
